Like-named read-outs stand apart in the source and are kept apart here.
Experiments:
[1] = Pharmacokinetics, non-compartmental, plasma concentration after subcutaneous dosing; type: in vivo; conditions: human; for Cmax / AUC(0-t): n = 8, geometric mean (CV%); for AUC(0-t): read-out: AUC0–168h
Protocol: (§1) Pharmacokinetic parameters were assessed on pre-defined visits in all participants who received IBI362. […] Standard non-compartmental pharmacokinetics methods were used to analyze IBI362 plasma concentration data using Pkanalix 2020R1 (Lixoft, Antony, France). The values for Cmax and Tmax were taken directly from the observed plasma concentration data. The terminal-phase disposition rate constant (λz) was estimated using a log-linear regression of the concentration data in the terminal disposition phase, and T1/2 was estimated as ln(2)/λz. Immunogenicity was assessed by measures of anti-drug antibody-positive responses.
Safety analyses were done in the safety population (defined as all participants who received at least one dose of the study treatment). Pharmacokinetic analyses were done in the pharmacokinetic population (defined as all participants who received at least one dose of IBI362 and had at least one valid plasma concentration assessment). Pharmacodynamic analyses were done in the pharmacodynamic population (defined as all participants who received at least one dose of the study treatment and had baseline and at least one valid assessment). Efficacy analyses were done in the efficacy population (defined as all participants who received at least one dose of the study treatment and had at least one post-baseline assessment).

[2] = Immunogenicity, anti-drug antibody-positive responses; type: in vivo, human
Protocol: as §1

[3] = test system: Chinese adults with overweight or obesity; assay: Efficacy and pharmacodynamic endpoints, change from baseline to week 12; type: in vivo, human; conditions: for Body weight Percent CFB / BMI CFB / Body weight CFB / Diastolic blood pressure CFB / Fasting insulin CFB / Fasting plasma glucose CFB / LDL cholesterol CFB / Systolic blood pressure CFB / Total cholesterol CFB / Triglycerides CFB / Waist circumference CFB / Serum uric acid CFB: MMRM; for HbA1c CFB: ANCOVA, LOCF; for Serum uric acid CFB: post-hoc, baseline to week 12, LS mean (95% CI)
Description: The secondary pharmacodynamic endpoints included changes from baseline (pre-dose on day 0) to week 12 in fasting plasma glucose and fasting insulin levels. The secondary efficacy endpoints included changes from baseline to week 12 in body weight, waist circumference, waist-to-hip ratio, BMI, blood pressure, heart rate, lipids and HbA1c levels. Post-hoc comparison of changes from baseline to week 12 in serum uric acid levels was done between participants receiving IBI362 in each cohort and those receiving placebo. We used mixed effect model for repeated measures (MMRM) for post-baseline repeated measures to analyse continuous efficacy and pharmacodynamic endpoints. The MMRM included the corresponding baseline value, treatment, visit and treatment-by-visit as fixed effects and participant as a random effect. Mean change from baseline or mean percent change from baseline were analysed using a restricted maximum likelihood (REML)-based repeated measures approach in combination with the Newton Raphson Algorithm. The fix effect of visit was fitted as a repeated effect and an unstructured covariance matrix was used. In case of non-converge, matrix like Variance Components and Compound Symmetry will be tested in a subsequent order until model-convergence is achieved. The between-subject degree of freedom was used in estimating fixed effects. No missing data imputation was conducted. Least squares mean estimates of treatment effect at week 12 as well as treatment difference versus placebo alongside with two-sided 95% confidence intervals were provided for key efficacy and pharmacodynamic endpoints. Significance test for body weight was based on least squares means using a two-sided α of 0.05. HbA1c was measured only at baseline and week 12. Least squares mean estimates for HbA1c were computed from an Analysis of Covariance (ANCOVA) model with baseline HbA1c value and treatment as covariates. Last observation carried forward (LOCF) was used for imputing missing post-baseline measure. Least squares mean estimates of treatment effect at week 12 alongside with two-sided 95% confidence intervals were provided. Post-hoc analysis of serum uric acid was performed using MMRM model described above.

mice = conditions: cited from earlier work
Description: (§2) IBI362 is a long-acting synthetic peptide analogue of mammalian OXM, with a fatty-acyl moiety to extend the half-life. […] Furthermore, a first-in-human single ascending dose ...

human GLP-1 receptors = conditions: in vitro; cited from earlier work
Description: as §2

Gcgr knockout (KO) mice = conditions: cited from earlier work
Description: as §2

mouse glucagon receptors = conditions: in vitro; cited from earlier work
Description: as §2

mouse GLP-1 receptors = conditions: in vitro; cited from earlier work
Description: as §2

Glp1r KO mice = conditions: cited from earlier work
Description: as §2

healthy subjects = conditions: single ascending dose; cited from earlier work
Description: as §2

human glucagon receptors = conditions: in vitro; cited from earlier work
Description: as §2

[4] = 1 mg, after first sc dose, 1.0–2.0–3.0 mg regimen
[5] = 1.5 mg, after first sc dose, 1.5–3.0–4.5 mg regimen
[6] = 2 mg, after first sc dose, 2.0–4.0–6.0 mg regimen
[7] = 1.0–2.0–3.0 mg sc once weekly, baseline to week 12, n = 8, LS mean (95% CI)
[8] = 1.5–3.0–4.5 mg sc once weekly, baseline to week 12, n = 8, LS mean (95% CI)
[9] = 2.0–4.0–6.0 mg sc once weekly, baseline to week 12, n = 7, LS mean (95% CI)

CC(C)C[C@H](NC(=O)[C@H](CC(C)C)NC(=O)[C@H](Cc1c[nH]c2ccccc12)NC(=O)[C@H](CCC(=O)O)NC(=O)[C@@H](NC(=O)[C@H](Cc1ccccc1)NC(=O)[C@H](CCC(=O)O)NC(=O)[C@H](CCCCNC(=O)COCCOCCNC(=O)COCCOCCNC(=O)CC[C@H](NC(=O)CCCCCCCCCCCCCCCCCCC(=O)O)C(=O)O)NC(=O)[C@H](C)NC(=O)[C@H](CCCCN)NC(=O)[C@H](CCCCN)NC(=O)[C@H](CCC(=O)O)NC(=O)[C@H](CC(=O)O)NC(=O)[C@H](CC(C)C)NC(=O)[C@H](Cc1ccc(O)cc1)NC(=O)[C@H](CCCCN)NC(=O)[C@H](CO)NC(=O)[C@H](Cc1ccc(O)cc1)NC(=O)[C@H](CC(=O)O)NC(=O)[C@H](CO)NC(=O)[C@@H](NC(=O)[C@H](Cc1ccccc1)NC(=O)[C@@H](NC(=O)CNC(=O)[C@H](CCC(N)=O)NC(=O)C(C)(C)NC(=O)[C@@H](N)Cc1c[nH]cn1)[C@@H](C)O)[C@@H](C)O)C(C)C)C(=O)N[C@@H](CCC(=O)O)C(=O)NCC(=O)NCC(=O)N1CCC[C@H]1C(=O)N[C@@H](CO)C(=O)N[C@@H](CO)C(=O)NCC(N)=O [IBI362]
Cmax [1, 4]: 82.4 ng/mL
AUC(0-t) [1, 4]: 12500 ng·h/mL
Tmax ([1]; 1 mg, after first sc dose, 1.0–2.0–3.0 mg regimen, n = 8, median (range), read-out: Tmax): 71.9 h
Cmax [1, 5]: 99.6 ng/mL
AUC(0-t) [1, 5]: 15600 ng·h/mL
Tmax ([1]; 1.5 mg, after first sc dose, 1.5–3.0–4.5 mg regimen, n = 8, median (range), read-out: Tmax): 84.5 h
Cmax [1, 6]: 134 ng/mL
AUC(0-t) [1, 6]: 19200 ng·h/mL
Tmax ([1]; 2 mg, after first sc dose, 2.0–4.0–6.0 mg regimen, n = 8, median (range), read-out: Tmax): 71.9 h
Tmax ([1]; first sc doses, all cohorts, read-out: median Tmax): 72 h
Participants who developed anti-IBI362 antibody ([2]; 3.0 mg cohort): One
Participants who developed anti-IBI362 antibody ([2]; 4.5 mg cohort): one
Body weight Percent CFB ([3]; 1.0–2.0–3.0 mg sc once weekly (3.0 mg cohort), baseline to week 12, n = 8, LS mean (95% CI)): −4.81%
HbA1c CFB [3, 7]: −0.38%
BMI CFB [3, 7]: −1.44 kg/m²
Body weight CFB [3, 7]: -3.80 kg
Diastolic blood pressure CFB [3, 7]: −8.48 mm Hg
Fasting insulin CFB [3, 7]: −3.58 µU/mL
Fasting plasma glucose CFB [3, 7]: -0.30 mmol/L
LDL cholesterol CFB [3, 7]: -0.11 mmol/L
Systolic blood pressure CFB [3, 7]: −8.26 mm Hg
Total cholesterol CFB [3, 7]: -0.74 mmol/L
Triglycerides CFB [3, 7]: -0.44 mmol/L
Waist circumference CFB [3, 7]: −3.25 cm
Body weight Percent CFB ([3]; 1.5–3.0–4.5 mg sc once weekly (4.5 mg cohort), baseline to week 12, n = 8, LS mean (95% CI)): −6.40%
HbA1c CFB [3, 8]: −0.24%
BMI CFB [3, 8]: −2.00 kg/m²
Body weight CFB [3, 8]: -5.77 kg
Diastolic blood pressure CFB [3, 8]: −5.76 mm Hg
Fasting insulin CFB [3, 8]: −6.14 µU/mL
Fasting plasma glucose CFB [3, 8]: -0.11 mmol/L
LDL cholesterol CFB [3, 8]: -0.25 mmol/L
Systolic blood pressure CFB [3, 8]: −5.80 mm Hg
Total cholesterol CFB [3, 8]: -0.68 mmol/L
Triglycerides CFB [3, 8]: -0.55 mmol/L
Waist circumference CFB [3, 8]: −4.57 cm
Body weight Percent CFB ([3]; 2.0–4.0–6.0 mg sc once weekly (6.0 mg cohort), baseline to week 12, n = 7, LS mean (95% CI)): −6.05%
HbA1c CFB [3, 9]: −0.23%
BMI CFB [3, 9]: −1.88 kg/m²
Body weight CFB [3, 9]: -5.12 kg
Diastolic blood pressure CFB [3, 9]: −2.73 mm Hg
Fasting insulin CFB [3, 9]: −0.42 µU/mL
Fasting plasma glucose CFB [3, 9]: -0.13 mmol/L
LDL cholesterol CFB [3, 9]: -0.34 mmol/L
Systolic blood pressure CFB [3, 9]: −5.59 mm Hg
Total cholesterol CFB [3, 9]: -0.81 mmol/L
Triglycerides CFB [3, 9]: -0.74 mmol/L
Waist circumference CFB [3, 9]: −5.00 cm
Serum ALT and AST levels ([3]; all three dose cohorts (Fig. S6)): decreased from baseline
Serum uric acid CFB ([3]; 3.0 mg cohort (1.0-2.0-3.0 mg)): -43.67 µmol/L
Serum uric acid CFB ([3]; 4.5 mg cohort (1.5-3.0-4.5 mg)): -83.47 µmol/L
Serum uric acid CFB ([3]; 6.0 mg cohort (2.0-4.0-6.0 mg)): -87.48 µmol/L
Participants with coincident decrease in body weight, LDL cholesterol, triglycerides, blood pressure and serum uric acid ([3]; week 12, all IBI362 cohorts, 10 participants, data not shown): 41.7%
Participants achieving ≥5% weight loss from baseline ([3]; week 12, all IBI362 cohorts, thirteen participants): 54.2%
Energy expenditure as compared with vehicle (mice): increased energy expenditure
Glucose control (mice): improved glucose control
Binding to human GLP-1 receptors (human GLP-1 receptors): potently bound
Body weight (Gcgr knockout (KO) mice): decreased body weight
Binding to mouse glucagon receptors (mouse glucagon receptors): potently bound
Binding to mouse GLP-1 receptors (mouse GLP-1 receptors): potently bound
Body weight (Glp1r KO mice): decreased body weight
Safety, glycaemic improvement and weight loss (healthy subjects): demonstrated the safety, glycaemic improvement and weight loss
Binding to human glucagon receptors (human glucagon receptors): potently bound
